PubChem BioAssay AID256 (DTP/NCI, 2004)
Inconclusive results and toxic doses are left out. How the source made its calls: active means survival T/C of 150% or more; inactive means T/C below 125% in these data.

System: CD2F1 mice, L1210 leukemia ip, survival T/C
Assay: NCI In Vivo Anticancer Drug Screen. Data for tumor model L1210 Leukemia (intraperitoneal) in CD2F1 (CDF1) mice
Conditions: endpoint: mean survival time, higher = longer survival
How it was run: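 Read-out first: treated-group measurement over vehicle-control measurement, expressed as a ratio. Animals bore a transplanted tumor line and were dosed with compound or vehicle.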

[1] = dose: 100.0 mg/kg/injection, schedule: Q04DX003 (ip), vehicle: saline with Tween-80
[2] = dose: 200.0 mg/kg/injection, schedule: Q04DX003 (ip), vehicle: saline with Tween-80
[3] = dose: 400.0 mg/kg/injection, schedule: Q04DX003 (ip), vehicle: saline with Tween-80
[4] = dose: 100.0 mg/kg/injection, schedule: Q01DX009 (ip), vehicle: saline with Tween-80
[5] = dose: 200.0 mg/kg/injection, schedule: Q01DX009 (ip), vehicle: saline with Tween-80

Measured: T/C

O=S(=O)(O)c1ccc(-c2c3nc(c(-c4ccc(S(=O)(=O)O)cc4)c4ccc([nH]4)c(-c4ccc(S(=O)(=O)O)cc4)c4nc(c(-c5ccc(S(=O)(=O)O)cc5)c5ccc2[nH]5)C=C4)C=C3)cc1
inactive: dose: 100.0 mg/kg/injection, schedule: Q01DX001 (ip), vehicle: saline 108 % of control | dose: 200.0 mg/kg/injection, schedule: Q01DX001 (ip), vehicle: saline 108 % of control | dose: 400.0 mg/kg/injection, schedule: Q01DX001 (ip), vehicle: saline 113 % of control

C(CN1CCOCC1)CN1CN(CCCN2CCOCC2)CN(CCCN2CCOCC2)C1
inactive: [1] 106 % of control | [2] 101 % of control | [3] 113 % of control

C1=CC(=P(c2ccccc2)(c2ccccc2)c2ccccc2)C=C1
inactive: [4] 98 % of control | [1] 94 % of control | [5] 100 % of control | [2] 95 % of control | dose: 240.0 mg/kg/injection, schedule: Q01DX015 (ip), vehicle: saline 87 % of control | dose: 400.0 mg/kg/injection, schedule: Q01DX009 (ip), vehicle: saline with Tween-80 94 % of control | [3] 94 % of control | dose: 480.0 mg/kg/injection, schedule: Q01DX015 (ip), vehicle: saline 87 % of control | dose: 960.0 mg/kg/injection, schedule: Q01DX015 (ip), vehicle: saline 92 % of control

Cc1ccc2cc3c(cc2c1C)sc1ccccc13
inactive: dose: 8.8 mg/kg/injection, schedule: Q04DX003 (ip), vehicle: other 108 % of control | dose: 17.5 mg/kg/injection, schedule: Q04DX003 (ip), vehicle: other 115 % of control | dose: 35.0 mg/kg/injection, schedule: Q04DX003 (ip), vehicle: other 108 % of control | dose: 70.0 mg/kg/injection, schedule: Q04DX003 (ip), vehicle: other 97 % of control | dose: 140.0 mg/kg/injection, schedule: Q04DX003 (ip), vehicle: other 93 % of control

COC(=O)c1n[nH]c(C(C)C)c1N=NN(C)C
inactive: dose: 37.5 mg/kg/injection, schedule: Q01DX009 (ip), vehicle: saline with Tween-80 106 % of control | dose: 75.0 mg/kg/injection, schedule: Q01DX009 (ip), vehicle: saline with Tween-80 121 % of control | dose: 150.0 mg/kg/injection, schedule: Q01DX009 (ip), vehicle: saline with Tween-80 92 % of control

COc1ccc(OCCOC(=O)Nc2cc(Cl)c(OC)cc2OC)cc1
inactive: dose: 12.5 mg/kg/injection, schedule: Q01DX009 (ip), vehicle: saline with Tween-80 106 % of control | dose: 25.0 mg/kg/injection, schedule: Q01DX009 (ip), vehicle: saline with Tween-80 103 % of control | dose: 50.0 mg/kg/injection, schedule: Q01DX009 (ip), vehicle: saline with Tween-80 106 % of control | [4] 92 % of control | [5] 92 % of control

O=C(OCC1OCOC(COC(=O)c2ccccc2)C(OC(=O)c2ccccc2)C1OC(=O)c1ccccc1)c1ccccc1 (stereo not given)
inactive: dose: 100.0 mg/kg/injection, schedule: Q04DX002 (ip), vehicle: saline with Tween-80 100 % of control | dose: 200.0 mg/kg/injection, schedule: Q04DX002 (ip), vehicle: saline with Tween-80 88 % of control | dose: 400.0 mg/kg/injection, schedule: Q04DX002 (ip), vehicle: saline with Tween-80 88 % of control

CCOC(C[Se][Se]CC(OCC)OCC)OCC
inactive: dose: 3.13 mg/kg/injection, schedule: Q01DX009 (ip), vehicle: saline 100 % of control | dose: 6.25 mg/kg/injection, schedule: Q01DX009 (ip), vehicle: saline 108 % of control | dose: 6.25 mg/kg/injection, schedule: Q04DX003 (ip), vehicle: saline with Tween-80 95 % of control | dose: 12.5 mg/kg/injection, schedule: Q04DX003 (ip), vehicle: saline with Tween-80 102 % of control
